Measurements reported in ChEMBL document CHEMBL5034035, “Discovery of an Oxycyclohexyl Acid Lysophosphatidic Acid Receptor 1 (LPA1) Antagonist BMS-986278 for the Treatment of Pulmonary Fibrotic Diseases” (J Med Chem, 2021).
pIC50: −log10 of the molar value. Values after ≈ are worked out from the molar mass of the structure shown.

Tests used:
[1] = Plasma clearance in Sprague-Dawley rat at 3 mg/kg, po or 1 mg/kg, iv measured up to 24 hrs by LC-MS/MS analysis; format: ADME, organism-based
[2] = Plasma clearance in Cynomolgus monkey at 3 mg/kg, po or 1 mg/kg, iv measured up to 24 hrs by LC-MS/MS analysis; format: ADME, organism-based, Macaca fascicularis
[3] = Oral bioavailability in Sprague-Dawley rat at 3 mg/kg measured up to 24 hrs by LC-MS/MS analysis; format: ADME, organism-based; conditions: in vivo
[4] = Oral bioavailability in cynomolgus monkey at 3 mg/kg measured up to 24 hrs by LC-MS/MS analysis; format: ADME, organism-based, Macaca fascicularis; conditions: in vivo
[5] = Elimination half life in CD-1 mouse at 3 mg/kg, po or 1 mg/kg, iv measured up to 24 hrs by LC-MS/MS analysis; format: ADME, organism-based; conditions: in vivo, read-out: beta t1/2 (converted)
[6] = Elimination half life in cynomolgus monkey at 3 mg/kg, po or 1 mg/kg, iv measured up to 24 hrs by LC-MS/MS analysis; format: ADME, organism-based, Macaca fascicularis; conditions: in vivo, read-out: beta t1/2 (converted)
[7] = Protein binding in Cynomolgus monkey plasma assessed as free fraction at 3 mg/kg, po or 1 mg/kg, iv measured up to 24 hrs by LC-MS/MS analysis; format: ADME, organism-based, Macaca fascicularis
[8] = molecular target: T1, hERG (Homo sapiens, UniProt Q12809); assay: Inhibition of hERG at 10 uM by electrophysiological assay relative to control
T1 sequence (Q12809 whole entry): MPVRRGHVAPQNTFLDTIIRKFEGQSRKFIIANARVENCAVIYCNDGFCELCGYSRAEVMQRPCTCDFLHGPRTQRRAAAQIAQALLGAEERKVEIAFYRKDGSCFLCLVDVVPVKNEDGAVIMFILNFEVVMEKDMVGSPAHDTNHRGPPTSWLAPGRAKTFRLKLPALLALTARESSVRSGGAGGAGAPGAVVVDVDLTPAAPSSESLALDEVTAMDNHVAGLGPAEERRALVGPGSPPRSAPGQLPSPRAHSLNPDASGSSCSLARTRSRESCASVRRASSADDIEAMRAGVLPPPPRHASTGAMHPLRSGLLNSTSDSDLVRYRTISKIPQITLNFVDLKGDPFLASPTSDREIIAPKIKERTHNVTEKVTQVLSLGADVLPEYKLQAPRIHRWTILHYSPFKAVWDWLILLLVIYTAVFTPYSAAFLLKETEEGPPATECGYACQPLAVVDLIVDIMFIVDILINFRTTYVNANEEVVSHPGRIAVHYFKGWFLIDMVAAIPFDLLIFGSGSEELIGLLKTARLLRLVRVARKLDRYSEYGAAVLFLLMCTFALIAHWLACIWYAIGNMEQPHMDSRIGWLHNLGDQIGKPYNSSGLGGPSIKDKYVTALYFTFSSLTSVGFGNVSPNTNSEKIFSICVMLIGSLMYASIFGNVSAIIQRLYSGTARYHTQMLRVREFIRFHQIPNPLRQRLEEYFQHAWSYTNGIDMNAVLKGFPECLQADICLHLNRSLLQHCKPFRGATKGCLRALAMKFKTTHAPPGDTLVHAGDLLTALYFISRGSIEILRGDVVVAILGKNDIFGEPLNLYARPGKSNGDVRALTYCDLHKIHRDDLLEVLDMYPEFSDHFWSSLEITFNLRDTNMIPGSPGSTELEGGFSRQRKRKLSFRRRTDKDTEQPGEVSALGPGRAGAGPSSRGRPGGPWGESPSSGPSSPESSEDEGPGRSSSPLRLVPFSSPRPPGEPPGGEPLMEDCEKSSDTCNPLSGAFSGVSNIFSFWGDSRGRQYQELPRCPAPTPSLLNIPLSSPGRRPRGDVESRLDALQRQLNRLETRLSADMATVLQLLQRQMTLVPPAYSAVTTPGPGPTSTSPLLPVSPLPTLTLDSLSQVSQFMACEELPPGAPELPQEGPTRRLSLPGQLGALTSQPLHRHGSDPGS

[9] = AUC (0 to 24 hrs) in Cynomolgus monkey plasma at 500 mg/kg, po administered for 4 weeks; format: ADME, organism-based, Macaca fascicularis; parameters: route oral, time 4 weeks, dose 500 mg/kg
[10] = Hepatobiliary toxicity in Cynomolgus monkey assessed as bile duct hyperplasia measured up to 1 month; parameters: species or system Macaca fascicularis; conditions: in vivo, time <=1 months
[11] = Metabolic stability in liver microsomes (unknown origin) assessed as half life; format: ADME, Microsome
[12] = Drug metabolism in human hepatocytes assessed as formation of acyl glucuronide metabolites at 10 uM measured after 2 hrs by LC/UV/MS analysis; format: ADME, cell-based, Hepatocyte
[13] = Drug metabolism in monkey hepatocytes assessed as formation of acyl glucuronides metabolites at 10 uM measured after 2 hrs by LC/UV/MS analysis; format: ADME, cell-based, Macaca mulatta, Hepatocyte; conditions: rhesus monkey
[14] = Hepatobiliary toxicity in Cynomolgus monkey assessed as cholangitis measured up to 1 month; parameters: species or system Macaca fascicularis; conditions: in vivo, time <=1 months
[15] = Hepatobiliary toxicity in Cynomolgus monkey assessed as cholestasis measured up to 1 month; parameters: species or system Macaca fascicularis; conditions: time <=1 months
[16] = molecular target: Phosphatidylcholine translocator ABCB4 (Homo sapiens, UniProt P21439); assay: Inhibition of MDR3 (unknown origin); format: ADME
Sequence of Phosphatidylcholine translocator ABCB4 (P21439 whole entry): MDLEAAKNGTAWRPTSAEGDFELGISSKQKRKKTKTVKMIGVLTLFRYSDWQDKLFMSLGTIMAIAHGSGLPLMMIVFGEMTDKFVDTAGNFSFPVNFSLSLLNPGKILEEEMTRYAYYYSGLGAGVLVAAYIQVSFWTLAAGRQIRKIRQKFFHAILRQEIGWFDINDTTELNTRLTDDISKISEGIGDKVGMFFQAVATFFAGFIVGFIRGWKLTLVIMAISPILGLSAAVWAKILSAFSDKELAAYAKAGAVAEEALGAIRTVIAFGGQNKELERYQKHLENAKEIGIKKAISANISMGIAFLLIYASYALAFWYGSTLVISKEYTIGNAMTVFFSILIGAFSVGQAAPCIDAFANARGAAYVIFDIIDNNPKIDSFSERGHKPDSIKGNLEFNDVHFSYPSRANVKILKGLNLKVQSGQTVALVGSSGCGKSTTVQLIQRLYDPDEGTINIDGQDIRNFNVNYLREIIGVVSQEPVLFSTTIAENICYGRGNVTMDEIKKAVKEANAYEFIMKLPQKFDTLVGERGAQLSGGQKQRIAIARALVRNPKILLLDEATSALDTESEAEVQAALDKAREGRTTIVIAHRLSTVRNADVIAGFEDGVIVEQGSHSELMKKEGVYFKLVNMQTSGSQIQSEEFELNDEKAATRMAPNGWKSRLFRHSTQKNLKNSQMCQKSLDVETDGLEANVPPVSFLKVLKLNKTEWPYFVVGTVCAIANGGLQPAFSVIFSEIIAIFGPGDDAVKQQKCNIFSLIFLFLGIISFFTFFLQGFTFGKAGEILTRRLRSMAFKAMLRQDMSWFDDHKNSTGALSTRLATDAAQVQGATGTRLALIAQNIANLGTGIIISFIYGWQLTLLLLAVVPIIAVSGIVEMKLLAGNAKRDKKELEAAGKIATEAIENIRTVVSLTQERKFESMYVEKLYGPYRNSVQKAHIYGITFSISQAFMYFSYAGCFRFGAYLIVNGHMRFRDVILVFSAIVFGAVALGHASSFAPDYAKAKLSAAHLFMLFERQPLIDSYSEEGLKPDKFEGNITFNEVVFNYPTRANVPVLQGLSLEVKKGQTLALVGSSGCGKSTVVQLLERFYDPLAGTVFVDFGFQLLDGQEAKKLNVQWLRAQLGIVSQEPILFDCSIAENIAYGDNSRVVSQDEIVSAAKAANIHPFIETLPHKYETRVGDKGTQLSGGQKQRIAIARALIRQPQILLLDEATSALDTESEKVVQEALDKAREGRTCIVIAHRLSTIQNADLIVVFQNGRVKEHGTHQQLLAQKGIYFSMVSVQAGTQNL

[17] = tested on: Rattus norvegicus; assay: Anti-fibrotic activity in Sprague-Dawley rat model of bleomycin-induced lung fibrosis assessed as decrease in bleomycin-induced collagen deposition by measuring decrease in PSR-stained lung sections at 30 mg/kg, po BID for 21 days followed by tracheal administration of bleomycin by PSR staining based HALO densitometric analysis relative to control; format: functional; parameters: scale not given: the % may be the effect or the level left; conditions: time 21 day
[18] = AUC (0 to 24 hrs) in Cynomolgus monkey plasma at 50 mg/kg, po administered for 7 days; format: ADME, organism-based, Macaca fascicularis; parameters: route oral, time 7 day, dose 50 mg/kg
[19] = molecular target: hERG (KCNH2) (Homo sapiens, UniProt Q12809); assay: Inhibition of hERG at 15 uM by electrophysiological assay relative to control
Sequence of hERG (KCNH2) (Q12809 whole entry): as the sequence (Q12809 whole entry) above

[20] = Hepatobiliary toxicity in Cynomolgus monkey assessed as cholestasis at up to 150 mg/kg/day measured up to 9 month; format: organism-based, Macaca fascicularis; conditions: in vivo, time <=9 months
[21] = Hepatobiliary toxicity in Sprague-Dawley rat assessed as cholestasis at up to 100 mg/kg/day measured up to 6 month; format: organism-based; conditions: in vivo, time <=6 months
[22] = Hepatobiliary toxicity in Sprague-Dawley rat assessed as bile duct hyperplasia at up to 100 mg/kg/day measured up to 6 months; format: organism-based; conditions: in vivo
[23] = molecular target: T1, hERG; assay: Inhibition of hERG at 30 uM by electrophysiological assay relative to control
[24] = Aqueous solubility of compound at pH 7.5; format: physicochemical
[25] = tested on: Rattus norvegicus; assay: (§1) Anti-fibrotic activity in Sprague-Dawley rat model of bleomycin-induced lung fibrosis assessed as decrease in bleomycin-induced collagen deposition at 3 mg/kg, po BID followed by tracheal administration of bleomycin on day 8 and measured on day 21 by Masson's trichrome staining based HALO densitometric analysis relative to control; format: functional; parameters: scale not given: the % may be the effect or the level left; conditions: time 21 day
[26] = tested on: Rattus norvegicus; assay: as §1, with “10” for “3”; format: functional; parameters: scale not given: the % may be the effect or the level left; conditions: time 21 day
[27] = Hepatobiliary toxicity in Sprague-Dawley rat assessed as cholangitis at up to 100 mg/kg/day measured up to 6 months; format: organism-based; conditions: in vivo
[28] = Hepatobiliary toxicity in Cynomolgus monkey assessed as cholangitis at up to 150 mg/kg/day measured up to 9 months; format: organism-based, Macaca fascicularis; conditions: in vivo
[29] = AUC (0 to 24 hrs) in Sprague-Dawley rat plasma at 300 mg/kg/day; format: ADME, organism-based; parameters: time < 24 hr, dose 300 mg/kg/day
[30] = AUC (0 to 24 hrs) in Cynomolgus monkey plasma at 150 mg/kg/day; format: ADME, organism-based, Macaca fascicularis; parameters: time < 24 hr, dose 150 mg/kg/day
[31] = Drug metabolism in dog hepatocytes assessed as carbamate hydrolytic product formation at 10 uM measured after 2 hrs by LC/UV/MS analysis; format: ADME, cell-based, Canis lupus familiaris, Hepatocyte
[32] = Drug metabolism in monkey hepatocytes assessed as carbamate hydrolytic product formation at 10 uM measured after 2 hrs by LC/UV/MS analysis; format: ADME, cell-based, Macaca mulatta, Hepatocyte; conditions: rhesus monkey
[33] = Drug metabolism in mouse hepatocytes assessed as carbamate hydrolytic product formation at 10 uM measured after 2 hrs by LC/UV/MS analysis; format: ADME, cell-based, Hepatocyte
[34] = tested on: Rattus norvegicus; assay: as §1, with “30” for “3”; format: functional; parameters: scale not given: the % may be the effect or the level left
[35] = Hepatobiliary toxicity in Cynomolgus monkey assessed as bile duct hyperplasia at up to 150 mg/kg/day measured up to 9 months; format: organism-based, Macaca fascicularis; conditions: in vivo
[36] = Drug metabolism in human hepatocytes assessed as N-demethylation metabolite formation at 10 uM measured after 2 hrs by LC/UV/MS analysis; format: ADME, cell-based, Hepatocyte
[37] = Drug metabolism in monkey hepatocytes assessed as N-demethylation metabolite formation at 10 uM measured after 2 hrs by LC/UV/MS analysis; format: ADME, cell-based, Macaca mulatta, Hepatocyte; conditions: rhesus monkey
[38] = Drug metabolism in rat hepatocytes assessed as N-demethylation metabolite formation at 10 uM measured after 2 hrs by LC/UV/MS analysis; format: ADME, cell-based, Hepatocyte
[39] = animal or person; conditions: Mus musculus, CD-1
[40] = animal or person; conditions: Mus musculus, CD-1; remark: listed apart in the source

Cc1nc(-c2nnn(C)c2COC(=O)N(C)CC2CCC2)ccc1O[C@H]1CCC[C@H](C(=O)O)C1
clearance [1]: 104 mL/min/kg
clearance [2]: 17 mL/min/kg
bioavailability [3]: 69%
bioavailability [4]: 65%
half-life [5]: 1.5 h
half-life [6]: 14 h
fraction unbound at 24 h [7]: 0.009
inhibition at 10 µM [8]: 6%
AUC at 672 h [9]: 962 µg·h/mL
Activity [10]: Non-Toxic
half-life [11]: > 0.917 h
Drug metabolism [12]: Metabolite_Detected
Drug metabolism [13]: Metabolite_Detected
Activity [14]: Non-Toxic
Activity [15]: Non-Toxic

Cc1noc(-c2ccc(-c3ccc(C4(C(=O)O)CC4)cc3)cc2)c1NC(=O)O[C@H](C)c1ccccc1 [BMS-986020]
pIC50 [16]: 5.12
Activity [17]: 63%
AUC at 168 h [18]: 74 µg·h/mL
inhibition at 15 µM [19]: 7%

CCCN(C)C(=O)OCc1c(-c2ccc(O[C@H]3CCC[C@H](C(=O)O)C3)c(C)n2)nnn1C [ADMILPARANT]
clearance [1]: 15 mL/min/kg
clearance [2]: 2 mL/min/kg
bioavailability [3]: 100%
bioavailability [4]: 79%
half-life [5]: 2.5 h
half-life [6]: 11 h
fraction unbound at 24 h [7]: 0.008
pIC50 [16]: < 4.00
Activity [20]: Non-Toxic
Activity [21]: Non-Toxic
Activity [22]: Non-Toxic
inhibition at 30 µM [23]: 35%
solubility [24]: 6210 µg/mL (≈ 13.9 mM)
Drug metabolism [13]: Metabolite_Detected
Activity [25]: 48%
Activity [26]: 56%
Activity [27]: Non-Toxic
Activity [28]: Non-Toxic
AUC at 24 h [29]: 1140 µg·h/mL
AUC at 24 h [30]: 1140 µg·h/mL
Drug metabolism [31]: Metabolite_Detected
Drug metabolism [32]: Metabolite_Detected
Drug metabolism [33]: Metabolite_Detected
Activity [34]: 41%
Activity [35]: Non-Toxic
Drug metabolism [36]: Metabolite_Detected
Drug metabolism [37]: Metabolite_Detected
Drug metabolism [38]: Metabolite_Detected
pIC50 [39]: 3.76
pIC50 [40]: 4.32
